SMILES strings stand for the structures.

The first test concerns the target T1, human recombinant A3AR (expressed in HEK-293 cells) (Homo sapiens, UniProt P0DMS8).
T1 construct: host or cells: HEK-293 cells
T1 sequence (P0DMS8 1-318): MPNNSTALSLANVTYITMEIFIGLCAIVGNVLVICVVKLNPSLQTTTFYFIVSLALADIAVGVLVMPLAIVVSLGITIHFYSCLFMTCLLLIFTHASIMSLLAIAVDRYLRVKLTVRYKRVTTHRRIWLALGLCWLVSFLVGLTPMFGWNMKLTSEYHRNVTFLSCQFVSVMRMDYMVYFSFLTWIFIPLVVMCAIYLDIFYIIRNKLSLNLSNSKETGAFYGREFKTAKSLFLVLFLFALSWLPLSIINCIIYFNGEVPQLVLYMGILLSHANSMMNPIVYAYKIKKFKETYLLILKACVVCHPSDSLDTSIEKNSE
Kind of test: Adenosine receptors antagonism assay (Eurofins), [125I]-AB-MECA radioligand competition. In kind it is binding. Particulars: [125I]-AB-MECA 0.15 nM, r.t., 120 min; IC50 from dose-response curves; read-out: Potency Class A3AR. In general terms: Displacement assays read how much labelled ligand stays bound in the presence of the test substance.
Protocol: Assays were carried out at r.t. for 120 min. Compounds were initially tested at three concentrations (0.01, 0.1, 1 µM). […] IC50 values, which is the concentration causing a half-maximal inhibition of control specific binding, and Hill coefficients (nH) were determined by non-linear regression analysis of the competition curves generated with mean replicate values using Hill equation curve fitting. The inhibition constants (Ki) were calculated using the Cheng Prusoff equation.
Take `CCC(CC)Nc1cc(Nc2ccc(OC)nc2)c2nnc(C(C)C)n2n1` [compound 159, 3-isopropyl-N8-(6-methoxypyridin-3-yl)-N6-(pentan-3-yl)-[1,2,4]triazolo[4,3-b]pyridazine-6,8-diamine]: the IC50 was less than 1 nM.

On to `CCCCNc1cc(NCc2ccccn2)c2nnc(C3CC3)n2n1` [compound 191, N6-butyl-3-cyclopropyl-N8-(pyridin-2-ylmethyl)-[1,2,4]triazolo[4,3-b]pyridazine-6,8-diamine], for which the IC50 is 1 to 10 nM. Regarding `CCC(CC)Nc1cc(NCc2ccccn2)c2nnc(C3CCC3)n2n1` [compound 63, 3-cyclobutyl-N6-(1-ethylpropyl)-N8-(2-pyridylmethyl)-[1,2,4]triazolo[4,3-b]pyridazine-6,8-diamine], the IC50 lay in the range of 1 to 10 nM. Regarding `CCC(CC)Nc1cc(NCCc2cccnc2)c2nnc(C(C)C)n2n1` [compound 84, N6-(1-ethylpropyl)-3-isopropyl-N8-[2-(3-pyridyl)ethyl]-[1,2,4]triazolo[4,3-b]pyridazine-6,8-diamine], the IC50 was 1 to 10 nM. The same measure, in the same setting: to `CCCNc1cc(NCc2ccccn2)c2nnc(C3CC3)n2n1` [compound 190, 3-cyclopropyl-N6-propyl-N8-(pyridin-2-ylmethyl)-[1,2,4]triazolo[4,3-b]pyridazine-6,8-diamine] belongs 10 to 100 nM; to `CCC(CC)Nc1cc(NCc2ccccn2)c2nnc(-c3ccccc3)n2n1` [compound 66, N6-(1-ethylpropyl)-3-phenyl-N8-(2-pyridylmethyl)-[1,2,4]triazolo[4,3-b]pyridazine-6,8-diamine], 10 to 100 nM; to `c1ccc(CNc2cc(N[C@@H]3CCOC3)nn3c(C4CC4)nnc23)nc1` [compound 213, (R)-3-cyclopropyl-N8-(pyridin-2-ylmethyl)-N6-(tetrahydrofuran-3-yl)-[1,2,4]triazolo[4,3-b]pyridazine-6,8-diamine], 100 to 1000 nM. As for `CC[C@H](CO)Nc1cc(N[C@H](CC)CO)c2nnc(C(C)C)n2n1` [compound 113, (2R)-2-[[6-[[(1R)-1-(hydroxymethyl)propyl]amino]-3-isopropyl-[1,2,4]triazolo[4,3-b]pyridazin-8-yl]amino]butan-1-ol], the IC50 is 100 to 1000 nM. For the molecule `COCCCNc1cc(NCc2ccccc2)c2nnc(C(F)(F)F)n2n1` [compound 36, N8-benzyl-N6-(3-methoxypropyl)-3-(trifluoromethyl)-[1,2,4]triazolo[4,3-b]pyridazine-6,8-diamine], the IC50 was 10 to 100 nM. The same measure, in the same setting: to `CCC(CC)Nc1cc(Nc2cccc(OC)n2)c2nnc(C(C)C)n2n1` [compound 154, 3-isopropyl-N8-(6-methoxypyridin-2-yl)-N6-(pentan-3-yl)-[1,2,4]triazolo[4,3-b]pyridazine-6,8-diamine] belongs less than 1 nM. Take `COCCCNc1cc(NCCCOC)c2nnc(C(F)(F)F)n2n1` [compound 111, N6,N8-bis(3-methoxypropyl)-3-(trifluoromethyl)-[1,2,4]triazolo[4,3-b]pyridazine-6,8-diamine]: the IC50 lay within 10 to 100 nM. In the case of `COCCCNc1cc(NCc2ccccc2O)c2nnc(C(C)C)n2n1` [compound 39, 2-[[[3-isopropyl-6-(3-methoxypropylamino)-[1,2,4]triazolo[4,3-b]pyridazin-8-yl]amino]methyl]phenol], the IC50 was in the range of 10 to 100 nM. As to `CC[C@H](CO)Nc1cc(NCc2ccccc2)c2nnc(C3CC3)n2n1` [compound 30, (2R)-2-[[8-(benzylamino)-3-cyclopropyl-[1,2,4]triazolo[4,3-b]pyridazin-6-yl]amino]butan-1-ol], the IC50 fell in the range of 100 to 1000 nM. The same measure, in the same setting: to `c1ccc(CNc2cc(NCC3CCC3)nn3c(C4CC4)nnc23)nc1` [compound 204, N6-(cyclobutylmethyl)-3-cyclopropyl-N8-(pyridin-2-ylmethyl)-[1,2,4]triazolo[4,3-b]pyridazine-6,8-diamine] belongs 1 to 10 nM; to `CCC(CC)Nc1cc(NCCc2ccccc2)c2nnc(C3CC3)n2n1` [compound 217, 3-cyclopropyl-N6-(pentan-3-yl)-N8-phenethyl-[1,2,4]triazolo[4,3-b]pyridazine-6,8-diamine], 1 to 10 nM; to `CCCc1nnc2c(NCc3ccccn3)cc(NC(CC)CC)nn12` [compound 60, N6-(1-ethylpropyl)-3-propyl-N8-(2-pyridylmethyl)-[1,2,4]triazolo[4,3-b]pyridazine-6,8-diamine], 10 to 100 nM. Consider `c1ccc(CNc2cc(NC34CC5CC(CC(C5)C3)C4)nn3c(C4CC4)nnc23)nc1` [compound 202, N6-((3s,5s,7s)-adamantan-1-yl)-3-cyclopropyl-N8-(pyridin-2-ylmethyl)-[1,2,4]triazolo[4,3-b]pyridazine-6,8-diamine], for which the IC50 fell in the range of 1 to 10 nM.

With `CC(C)c1nnc2c(NCc3ccc(-c4ccncc4)cc3)cc(N[C@H](CO)[C@@H](C)O)nn12` [compound 108, (2R,3R)-2-[[3-isopropyl-8-[[4-(4-pyridyl)phenyl]methylamino]-[1,2,4]triazolo[4,3-b]pyridazin-6-yl]amino]butane-1,3-diol], the IC50 fell in the range of 100 to 1000 nM. Turning to `CCC(CC)Nc1cc(Nc2cccnc2OC)c2nnc(C(C)C)n2n1` [compound 158, 3-isopropyl-N8-(2-methoxypyridin-3-yl)-N6-(pentan-3-yl)-[1,2,4]triazolo[4,3-b]pyridazine-6,8-diamine], the IC50 is less than 1 nM. Consider `CCNc1cc(NCc2ccccn2)c2nnc(C3CC3)n2n1` [compound 189, 3-cyclopropyl-N6-ethyl-N8-(2-pyridylmethyl)-[1,2,4]triazolo[4,3-b]pyridazine-6,8-diamine], for which the IC50 is 10 to 100 nM. As to `CC[C@@H](CO)Nc1cc(Nc2cccnn2)c2nnc(C3CC3)n2n1` [compound 182, (S)-2-((3-cyclopropyl-8-(pyridazin-3-ylamino)-[1,2,4]triazolo[4,3-b]pyridazin-6-yl)amino)butan-1-ol], the IC50 is less than 1 nM. In the case of `CCC(CC)Nc1cc(NCCc2ccccn2)c2nnc(C3CC3)n2n1` [compound 86, 3-cyclopropyl-N6-(1-ethylpropyl)-N8-[2-(2-pyridyl)ethyl]-[1,2,4]triazolo[4,3-b]pyridazine-6,8-diamine], the IC50 was less than 1 nM.

Consider `CC1(CNc2cc(NCc3ccccn3)c3nnc(C4CC4)n3n2)CCC1` [compound 206, 3-cyclopropyl-N6-((1-methylcyclobutyl)methyl)-N8-(pyridin-2-ylmethyl)-[1,2,4]triazolo[4,3-b]pyridazine-6,8-diamine], for which the IC50 fell in the range of 1 to 10 nM. As to `c1ccc(CNc2cc(N3CCCCC3)nn3c(C4CC4)nnc23)nc1` [compound 207, 3-cyclopropyl-6-(1-piperidyl)-N-(2-pyridylmethyl)-[1,2,4]triazolo[4,3-b]pyridazin-8-amine], the IC50 lay within 100 to 1000 nM. Still for that read-out and setting: to `CCC(CC)Nc1cc(NCc2ccccn2)c2nnc(-c3ccncc3)n2n1` [compound 72, N6-(1-ethylpropyl)-3-(4-pyridyl)-N8-(2-pyridylmethyl)-[1,2,4]triazolo[4,3-b]pyridazine-6,8-diamine] belongs 10 to 100 nM; to `CCC(CC)Nc1cc(NCc2ccccn2)c2nnc(C(C)C)n2n1` [compound 51, N6-(1-ethylpropyl)-3-isopropyl-N8-(2-pyridylmethyl)-[1,2,4]triazolo[4,3-b]pyridazine-6,8-diamine], 1 to 10 nM; to `CCC(CC)Nc1cc(Nc2ccncn2)c2nnc(C(C)C)n2n1` [compound 150, 3-isopropyl-N6-(pentan-3-yl)-N8-(pyrimidin-4-yl)-[1,2,4]triazolo[4,3-b]pyridazine-6,8-diamine], less than 1 nM. With `CNC(=O)CCNc1cc(NCc2ccccc2)c2nnc(C(C)C)n2n1` [compound 26, 3-[[8-(benzylamino)-3-isopropyl-[1,2,4]triazolo[4,3-b]pyridazin-6-yl]amino]-N-methyl-propanamide], the IC50 was in the range of 10 to 100 nM. With `CCC(CC)Nc1cc(NCc2ccccc2OC)c2nnc(C(C)C)n2n1` [compound 73, N6-(1-ethylpropyl)-3-isopropyl-N8-[(2-methoxyphenyl)methyl]-[1,2,4]triazolo[4,3-b]pyridazine-6,8-diamine], the IC50 lay within 1 to 10 nM. As for `CC[C@H](CO)Nc1cc(NCc2ccccn2)c2nnc(C3CC3)n2n1` [compound 211, (R)-2-((3-cyclopropyl-8-((pyridin-2-ylmethyl)amino)-[1,2,4]triazolo[4,3-b]pyridazin-6-yl)amino)butan-1-ol], the IC50 lay in the range of 10 to 100 nM. Consider `CCC(CC)Nc1cc(NCCCc2ccncc2)c2nnc(C(C)C)n2n1` [compound 91, N6-(1-ethylpropyl)-3-isopropyl-N8-[3-(4-pyridyl)propyl]-[1,2,4]triazolo[4,3-b]pyridazine-6,8-diamine], for which the IC50 lay in the range of 1 to 10 nM. The same measure, in the same setting: then `CCC(CC)Nc1cc(Nc2ccncc2)c2nnc(C(C)C)n2n1` [compound 48, N6-(1-ethylpropyl)-3-isopropyl-N8-(4-pyridyl)-[1,2,4]triazolo[4,3-b]pyridazine-6,8-diamine], with 1 to 10 nM; and `CCC(CC)Nc1cc(NC2CCc3ccccc32)c2nnc(C(C)C)n2n1` (racemic) [compound 81, N6-(1-ethylpropyl)-N8-indan-1-yl-3-isopropyl-[1,2,4]triazolo[4,3-b]pyridazine-6,8-diamine], with 10 to 100 nM.

`CC[C@H](CO)Nc1cc(NCc2ccccc2)c2nnc(C(F)(F)F)n2n1` [compound 37, (2R)-2-[[8-(benzylamino)-3-(trifluoromethyl)-[1,2,4]triazolo[4,3-b]pyridazin-6-yl]amino]butan-1-ol]: the IC50 was 10 to 100 nM.

Staying with this test, now noted: read-out: Potency Class A3AR; [125I]-AB-MECA 0.15 nM, r.t., 120 min; IC50 from dose-response curves.
With `CC[C@H](CO)Nc1cc(NCc2ccccn2)c2nnc(C(C)C)n2n1` [compound 169], the IC50 was in the range of 10 to 100 nM.
